From article PMC10287555, “Camonsertib in DNA damage response-deficient advanced solid tumors: phase 1 trial results” (Nature Medicine, 2023)
Read-outs that look alike come from different tables or passages of the source.

Assay: Plasma pharmacokinetics, cycle 1 day 1 (LC–MS/MS, non-compartmental analysis)
Assay type: in vivo, human
Details: for AUC(0-t) / Cmax / Tmax / AUC(0-inf) / half-life: human, plasma, oral; for Cmax: read-out: Cmax, geometric mean; for Tmax: read-out: Tmax, median; for AUC(0-inf): read-out: AUC0-INF, geometric mean
Protocol: The plasma levels from cycle 1, day 1 of camonsertib were quantified using a validated liquid chromatography tandem–mass spectrometry (LC–MS/MS) method. […] All PK parameters were calculated using actual sampling times. Mean plasma concentration time profiles at given dose levels and regimens were plotted on semi-logarithmic plots using nominal times.

[1] = Dose 5 mg, Tau 24 hr, cycle 1 day 1
[2] = Dose 10 mg, Tau 24 hr, cycle 1 day 1
[3] = Dose 20 mg, Tau 24 hr, cycle 1 day 1
[4] = Dose 40 mg, Tau 12 hr, cycle 1 day 1
[5] = Dose 40 mg, Tau 24 hr, cycle 1 day 1
[6] = Dose 60 mg, Tau 12 hr, cycle 1 day 1
[7] = Dose 80 mg, Tau 12 hr, cycle 1 day 1
[8] = Dose 80 mg, Tau 24 hr, cycle 1 day 1
[9] = Dose 100 mg, Tau 24 hr, cycle 1 day 1
[10] = Dose 120 mg, Tau 24 hr, cycle 1 day 1
[11] = Dose 160 mg, Tau 24 hr, cycle 1 day 1
[12] = Dose 200 mg, Tau 24 hr, cycle 1 day 1
[13] = 10 mg, Tau 24 hr, cycle 1 day 1
[14] = 20 mg, Tau 24 hr, cycle 1 day 1
[15] = 40 mg, Tau 12 hr, cycle 1 day 1
[16] = 40 mg, Tau 24 hr, cycle 1 day 1
[17] = 60 mg, Tau 12 hr, cycle 1 day 1
[18] = 80 mg, Tau 12 hr, cycle 1 day 1
[19] = 80 mg, Tau 24 hr, cycle 1 day 1
[20] = 100 mg, Tau 24 hr, cycle 1 day 1
[21] = 120 mg, Tau 24 hr, cycle 1 day 1
[22] = 160 mg, Tau 24 hr, cycle 1 day 1
[23] = 200 mg, Tau 24 hr, cycle 1 day 1

C[C@@H]1COCCN1c1cc([C@]2(O)C[C@H]3CC[C@@H](C2)O3)c2cnn(-c3cc[nH]n3)c2n1 [camonsertib]
AUC0-t/dose, geometric mean [1]: 0.427 µg·h/mL/mg
Cmax/dose, geometric mean [1]: 0.098 µg/mL/mg
AUC0-t/dose, geometric mean [2]: 0.567 µg·h/mL/mg
Cmax/dose, geometric mean [2]: 0.105 µg/mL/mg
AUC0-t/dose, geometric mean [3]: 0.239 µg·h/mL/mg
Cmax/dose, geometric mean [3]: 0.04 µg/mL/mg
AUC0-t/dose, geometric mean [4]: 1.003 µg·h/mL/mg
Cmax/dose, geometric mean [4]: 0.095 µg/mL/mg
AUC0-t/dose, geometric mean [5]: 0.329 µg·h/mL/mg
Cmax/dose, geometric mean [5]: 0.029 µg/mL/mg
AUC0-t/dose, geometric mean [6]: 0.444 µg·h/mL/mg
Cmax/dose, geometric mean [6]: 0.055 µg/mL/mg
AUC0-t/dose, geometric mean [7]: 0.527 µg·h/mL/mg
Cmax/dose, geometric mean [7]: 0.038 µg/mL/mg
AUC0-t/dose, geometric mean [8]: 0.254 µg·h/mL/mg
Cmax/dose, geometric mean [8]: 0.071 µg/mL/mg
AUC0-t/dose, geometric mean [9]: 0.3 µg·h/mL/mg
Cmax/dose, geometric mean [9]: 0.052 µg/mL/mg
AUC0-t/dose, geometric mean [10]: 0.246 µg·h/mL/mg
Cmax/dose, geometric mean [10]: 0.044 µg/mL/mg
AUC0-t/dose, geometric mean [11]: 0.256 µg·h/mL/mg
Cmax/dose, geometric mean [11]: 0.046 µg/mL/mg
AUC0-t/dose, geometric mean [12]: 0.273 µg·h/mL/mg
Cmax/dose, geometric mean [12]: 0.047 µg/mL/mg
Accumulation (after repeated dosing): no accumulation
Increases in Cmax and AUC with dose (dose range 5–200 mg QD): linear
AUC(0-t) (5 mg, Tau 24 hr, cycle 1 day 1, read-out: AUC0-12, geometric mean): 1800 ng·h/mL
AUC(0-t) (5 mg, Tau 24 hr, cycle 1 day 1, read-out: AUC0-t, geometric mean): 2100 ng·h/mL
Cmax (5 mg, Tau 24 hr, cycle 1 day 1): 500 ng/mL
Tmax (5 mg, Tau 24 hr, cycle 1 day 1): 1.17 h
AUC(0-t) (10 mg, Tau 24 hr, cycle 1 day 1, read-out: AUC0-12, geometric mean): 4400 ng·h/mL
AUC(0-t) (10 mg, Tau 24 hr, cycle 1 day 1, read-out: AUC0-t, geometric mean): 5700 ng·h/mL
Cmax [13]: 1100 ng/mL
Tmax [13]: 1 h
AUC(0-t) (20 mg, Tau 24 hr, cycle 1 day 1, read-out: AUC0-12, geometric mean): 2800 ng·h/mL
AUC(0-t) (20 mg, Tau 24 hr, cycle 1 day 1, read-out: AUC0-t, geometric mean): 4800 ng·h/mL
Cmax [14]: 800 ng/mL
Tmax [14]: 10.7 h
AUC(0-t) (40 mg, Tau 12 hr, cycle 1 day 1, read-out: AUC0-12, geometric mean): 23400 ng·h/mL
AUC(0-t) (40 mg, Tau 12 hr, cycle 1 day 1, read-out: AUC0-t, geometric mean): 40100 ng·h/mL
Cmax [15]: 3800 ng/mL
Tmax [15]: 1.96 h
AUC(0-t) (40 mg, Tau 24 hr, cycle 1 day 1, read-out: AUC0-12, geometric mean): 4700 ng·h/mL
AUC(0-t) (40 mg, Tau 24 hr, cycle 1 day 1, read-out: AUC0-t, geometric mean): 13200 ng·h/mL
Cmax [16]: 1200 ng/mL
Tmax [16]: 22.1 h
AUC(0-t) (60 mg, Tau 12 hr, cycle 1 day 1, read-out: AUC0-12, geometric mean): 16900 ng·h/mL
AUC(0-t) (60 mg, Tau 12 hr, cycle 1 day 1, read-out: AUC0-t, geometric mean): 26600 ng·h/mL
Cmax [17]: 3300 ng/mL
Tmax [17]: 1.55 h
AUC(0-t) (80 mg, Tau 12 hr, cycle 1 day 1, read-out: AUC0-12, geometric mean): 21400 ng·h/mL
AUC(0-t) (80 mg, Tau 12 hr, cycle 1 day 1, read-out: AUC0-t, geometric mean): 42100 ng·h/mL
Cmax [18]: 3000 ng/mL
Tmax [18]: 2.17 h
AUC(0-t) (80 mg, Tau 24 hr, cycle 1 day 1, read-out: AUC0-12, geometric mean): 18700 ng·h/mL
AUC(0-t) (80 mg, Tau 24 hr, cycle 1 day 1, read-out: AUC0-t, geometric mean): 20300 ng·h/mL
Cmax [19]: 5700 ng/mL
Tmax [19]: 1 h
AUC(0-t) (100 mg, Tau 24 hr, cycle 1 day 1, read-out: AUC0-12, geometric mean): 24800 ng·h/mL
AUC(0-t) (100 mg, Tau 24 hr, cycle 1 day 1, read-out: AUC0-t, geometric mean): 30200 ng·h/mL
Cmax [20]: 5200 ng/mL
Tmax [20]: 1.54 h
AUC(0-t) (120 mg, Tau 24 hr, cycle 1 day 1, read-out: AUC0-12, geometric mean): 23900 ng·h/mL
AUC(0-t) (120 mg, Tau 24 hr, cycle 1 day 1, read-out: AUC0-t, geometric mean): 29500 ng·h/mL
Cmax [21]: 5300 ng/mL
Tmax [21]: 2.03 h
AUC(0-t) (160 mg, Tau 24 hr, cycle 1 day 1, read-out: AUC0-12, geometric mean): 34800 ng·h/mL
AUC(0-t) (160 mg, Tau 24 hr, cycle 1 day 1, read-out: AUC0-t, geometric mean): 41000 ng·h/mL
Cmax [22]: 7300 ng/mL
Tmax [22]: 1.21 h
AUC(0-t) (200 mg, Tau 24 hr, cycle 1 day 1, read-out: AUC0-12, geometric mean): 44700 ng·h/mL
AUC(0-t) (200 mg, Tau 24 hr, cycle 1 day 1, read-out: AUC0-t, geometric mean): 54600 ng·h/mL
Cmax [23]: 9500 ng/mL
Tmax [23]: 1 h
AUC(0-inf) [1]: 2300 ng·h/mL
half-life (Dose 5 mg, Tau 24 hr, cycle 1 day 1, read-out: Half-life, geometric mean (converted)): 5.87 h
AUC(0-inf) [2]: 6600 ng·h/mL
half-life (Dose 10 mg, Tau 24 hr, cycle 1 day 1, read-out: Half-life, geometric mean (converted)): 8.5 h
AUC(0-inf) [3]: 3100 ng·h/mL
half-life (Dose 20 mg, Tau 24 hr, cycle 1 day 1, read-out: Half-life, geometric mean (converted)): 4.18 h
AUC(0-inf) [4]: 153000 ng·h/mL
AUC(0-inf) [6]: 66100 ng·h/mL
AUC(0-inf) [8]: 21000 ng·h/mL
half-life (Dose 80 mg, Tau 24 hr, cycle 1 day 1, read-out: Half-life, geometric mean (converted)): 4.08 h
AUC(0-inf) [9]: 32300 ng·h/mL
half-life (Dose 100 mg, Tau 24 hr, cycle 1 day 1, read-out: Half-life, geometric mean (converted)): 5.67 h
AUC(0-inf) [10]: 31300 ng·h/mL
half-life (Dose 120 mg, Tau 24 hr, cycle 1 day 1, read-out: Half-life, geometric mean (converted)): 6.21 h
AUC(0-inf) [11]: 45900 ng·h/mL
half-life (Dose 160 mg, Tau 24 hr, cycle 1 day 1, read-out: Half-life, geometric mean (converted)): 5.97 h
AUC(0-inf) [12]: 58900 ng·h/mL
half-life (Dose 200 mg, Tau 24 hr, cycle 1 day 1, read-out: Half-life, geometric mean (converted)): 6.31 h
half-life (across all QD dose levels, read-out: Median half-life (converted)): 5.8 h
Doses at which plasma exposures achieved predicted efficacious exposures (in vivo): > 100 mg QD
PK variability (intra-patient and inter-patient): low intra-patient and inter-patient variability
